Measurements published in the supplement of paper PMC5908809.

How the values were obtained:
[1] = system: normal NK cells expanded with K562-aAPC; assay: drug sensitivity score (DSS) (DSS units); higher = more sensitive; extreme values may be limits of the assay; details: 72 h; IL-2 2.5 ng/mL
Protocol: (§1)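 Drug sensitivity and resistance testing on K562-aAPC-expanded normal NK cells: 5 concentrations (10-fold steps over a 10,000-fold range), 72 h at 37 °C, viability by CellTiter-Glo normalised to DMSO and benzethonium chloride controls; DSS from the fitted curve.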

[2] = system: KHYG-1 (IL-2 2.5 ng/mL); assay: as above; details: 72 h
[3] = system: normal primary NK cells, pool 1 (3 donors), resting (IL-2 0 ng/mL); assay: as above; details: 72 h
[4] = system: normal primary NK cells, pool 1 (3 donors) (IL-2 2.5 ng/mL); assay: as above; details: 72 h
[5] = system: normal primary NK cells, pool 2 (3 donors) (IL-2 2.5 ng/mL); assay: as above; details: 72 h
[6] = system: normal primary NK cells, pool 3 (3 donors) (IL-2 2.5 ng/mL); assay: as above; details: 72 h
[7] = system: NK-YS (IL-2 2.5 ng/mL); assay: as above; details: 72 h
[8] = system: KAI3 (IL-2 2.5 ng/mL); assay: as above; details: 72 h
[9] = system: YT (IL-2 2.5 ng/mL); assay: as above; details: 72 h
[10] = system: IMC-1 (IL-2 20 ng/mL); assay: as above; details: 72 h
[11] = system: SNK-6 (IL-2 2.5 ng/mL); assay: as above; details: 72 h
[12] = system: NK-92 (IL-2 2.5 ng/mL); assay: as above; details: 72 h
[13] = system: DERL-7 (IL-2 2.5 ng/mL); assay: as above; details: 72 h
[14] = system: NKL (IL-2 2.5 ng/mL); assay: as above; details: 72 h
[15] = system: normal NK cells expanded with K562-aAPC; assay: percent inhibition of viability; higher = more inhibition; details: 72 h, IL-2 2.5 ng/mL
Protocol: as §1

[16] = system: KHYG-1 (IL-2 2.5 ng/mL); assay: as above; details: 72 h
[17] = system: normal primary NK cells, pool 1 (3 donors), resting (IL-2 0 ng/mL); assay: as above; details: 72 h
[18] = system: normal primary NK cells, pool 1 (3 donors) (IL-2 2.5 ng/mL); assay: as above; details: 72 h
[19] = system: normal primary NK cells, pool 2 (3 donors) (IL-2 2.5 ng/mL); assay: as above; details: 72 h
[20] = system: normal primary NK cells, pool 3 (3 donors) (IL-2 2.5 ng/mL); assay: as above; details: 72 h
[21] = system: NK-YS (IL-2 2.5 ng/mL); assay: as above; details: 72 h
[22] = system: KAI3 (IL-2 2.5 ng/mL); assay: as above; details: 72 h
[23] = system: YT (IL-2 2.5 ng/mL); assay: as above; details: 72 h
[24] = system: IMC-1 (IL-2 20 ng/mL); assay: as above; details: 72 h
[25] = system: SNK-6 (IL-2 2.5 ng/mL); assay: as above; details: 72 h
[26] = system: NK-92 (IL-2 2.5 ng/mL); assay: as above; details: 72 h
[27] = system: DERL-7 (IL-2 2.5 ng/mL); assay: as above; details: 72 h
[28] = system: NKL (IL-2 2.5 ng/mL); assay: as above; details: 72 h

O=C1CN2Cc3c(ccc(Cl)c3Cl)N=C2N1 [Anagrelide] (max concentration tested 10000 nM)
Details	drug sensitivity score
[1]	0
[2]	0
[3]	0.58
[4]	0
[5]	0
[6]	0
[7]	0
[8]	2.01
[9]	0.03
[10]	0
[11]	1.18
[12]	1.23
[13]	0
[14]	0

percent inhibition of viability [%]
Details	1 nM	10 nM	100 nM	1000 nM	10000 nM
[15]	-10.7	-8.47	-7.13	1.09	4.94
[16]	-5.21	-5.67	-5.27	2.55	2.12
[17]	-14.4	8.37	10.8	4.74	9.32
[18]	-7.17	12.1	9.62	3.68	6.66
[19]	-5.09	5.68	10.3	2.48	5.2
[20]	-7.45	-4.06	-2.15	-4.72	-5.66
[21]	-1.23	-6.42	0.98	-1.47	9.94
[22]	-3.01	-16.8	2.67	7.81	26.7
[23]	-4.72	-11.3	-2.78	-6.4	13
[24]	-2	-2.1	0.73	-7.98	0.69
[25]	-14.4	-27.6	-25	10.6	16.6
[26]	-16.3	-4.98	5.49	11	18.2
[27]	0.58	-15.8	5.22	-2.15	-3.54
[28]	-8	-3.63	5.32	5.47	9.73

Cc1ccc(-c2cc(C(F)(F)F)nn2-c2ccc(S(N)(=O)=O)cc2)cc1 [Celecoxib] (max concentration tested 10000 nM)
Details	drug sensitivity score
[1]	0.46
[2]	0
[3]	1.32
[4]	0.17
[5]	0.61
[6]	0.08
[7]	0.44
[8]	0.73
[9]	1.78
[10]	1.17
[11]	7.44
[12]	2.8
[13]	0.68
[14]	0

percent inhibition of viability [%]
Details	1 nM	10 nM	100 nM	1000 nM	10000 nM
[15]	5.69	5.19	8.1	13.1	11.9
[16]	-2.14	0.22	3.78	5.35	11.5
[17]	-5.64	-19.9	-6.8	-14.5	38.8
[18]	-3.14	-6.46	-5.04	-13.6	17.4
[19]	-5.46	-3.07	8.51	-1.27	21.4
[20]	-11.6	1.86	9.55	-0.12	12.8
[21]	3.79	1.41	5.74	5.5	17.7
[22]	-0.1	5.86	3.78	10.9	16.6
[23]	6.8	6.48	10.3	10.8	21.6
[24]	-1.63	4.12	3.17	8.92	21.4
[25]	7.19	19.3	11.5	33.2	29.1
[26]	-11.1	9.29	13.9	6.91	36.8
[27]	-4.04	-0.66	2.98	0.77	20.1
[28]	12.9	8.06	8.99	8.49	13.6

CC(C)C[C@H](NC(=O)[C@H](Cc1ccccc1)NC(=O)c1cnccn1)B(O)O [Bortezomib] (max concentration tested 1000 nM)
Details	drug sensitivity score
[1]	31.2
[2]	30.9
[3]	26.8
[4]	29.3
[5]	29.2
[6]	29.5
[7]	30.7
[8]	30.6
[9]	30.8
[10]	30.2
[11]	32.6
[12]	30.2
[13]	33.9
[14]	30.3

percent inhibition of viability [%]
Details	0.1 nM	1 nM	10 nM	100 nM	1000 nM
[15]	-2.23	4.9	100	101	100
[16]	-3.11	-0.47	105	108	100
[17]	-34.8	-55	91.9	94.3	94
[18]	-11.7	-7.66	97.5	98.1	98.4
[19]	-2.25	0.14	94.5	95.3	96.2
[20]	-3.11	-8.2	98.5	98.7	99.1
[21]	-5.54	-1.32	104	106	98.5
[22]	-14.4	-0.34	102	105	97
[23]	-2.41	0.1	103	107	101
[24]	-1.29	-3.94	101	101	101
[25]	21.6	12.7	98.5	101	100
[26]	-4.96	-5.77	102	107	98.3
[27]	-10.9	21.2	101	101	100
[28]	-12.9	-8.26	105	107	98.5

CC(=O)O[C@@]12CO[C@@H]1C[C@H](O)[C@@]1(C)C(=O)[C@H](O)C3=C(C)[C@@H](OC(=O)[C@H](O)[C@@H](NC(=O)OC(C)(C)C)c4ccccc4)C[C@@](O)([C@@H](OC(=O)c4ccccc4)[C@H]21)C3(C)C [Docetaxel] (max concentration tested 1000 nM)
Details	drug sensitivity score
[1]	16.8
[2]	29.3
[3]	0
[4]	0
[5]	0.25
[6]	1.58
[7]	25.9
[8]	18.3
[9]	31.9
[10]	30.5
[11]	28.8
[12]	23.4
[13]	30.4
[14]	32.2

percent inhibition of viability [%]
Details	0.1 nM	1 nM	10 nM	100 nM	1000 nM
[15]	1.57	-0.15	44.7	62.4	60.9
[16]	-5.67	3.57	90.9	108	109
[17]	-16.6	-21.6	-3.21	-14.6	1.53
[18]	-5.72	-1.18	7.27	4.99	10.2
[19]	-10.9	-7.43	13.8	3.59	13.1
[20]	-13.5	-17	14	7.86	24.8
[21]	-7.69	14.3	74.8	77.7	73.1
[22]	-10.5	19.4	46.7	57.1	51.6
[23]	-3.12	22.3	90.7	105	105
[24]	-1.65	2.39	97.9	101	101
[25]	15	38.3	77.9	76.7	70.6
[26]	-6.6	2.65	46	98.9	104
[27]	-4.53	0.19	99.5	100	100
[28]	-13.8	29	88.5	97.8	96.7

COc1c(C)cnc(Cn2cnc3c(Cl)nc(N)nc32)c1C [BIIB021] (max concentration tested 10000 nM)
Details	drug sensitivity score
[1]	25.3
[2]	26.8
[3]	8.4
[4]	17.8
[5]	20.3
[6]	16.6
[7]	25.3
[8]	27.3
[9]	22.8
[10]	22
[11]	28
[12]	24.4
[13]	25.7
[14]	21.3

percent inhibition of viability [%]
Details	1 nM	10 nM	100 nM	1000 nM	10000 nM
[15]	-1.27	-2.67	62.1	98.6	100
[16]	-2.8	-2.89	77.1	99.3	104
[17]	15.4	12.6	10.4	36.1	51
[18]	-3.67	7.97	27.8	79	88
[19]	-9.44	-10.5	39.7	81.5	83.5
[20]	-13.8	-15	16.2	78.9	87.8
[21]	0.34	0.63	61.5	97.2	102
[22]	-2.5	4.1	75.8	98.8	102
[23]	-3.19	-0.41	48.3	90.5	94.5
[24]	1.18	-3.95	26.6	99.6	101
[25]	19	-3.8	92.6	91	90.3
[26]	-8.24	-13.2	51.8	95.9	101
[27]	2.38	6.56	62.9	99.9	101
[28]	-6.72	-10.3	45.6	85.8	86.2
